Assay results published in patent US7155346B2, “Crystal structure of yqeJ and uses thereof” (Wyeth, priority 2001, dated 2006).

Columns and labels:
[1] = biological target: T1, B. subtilis NaMN AT (yqeJ) (Bacillus subtilis, UniProt P54455); test: Continuous coupled assay of the forward reaction (EnzChek pyrophosphate / purine nucleoside phosphorylase); assay type: biochemical; design: made in house; host or cells: E. coli BL21(DE3), vector pML208 (modified pET16b)
T1 sequence (P54455 with tags, fused parts or gaps): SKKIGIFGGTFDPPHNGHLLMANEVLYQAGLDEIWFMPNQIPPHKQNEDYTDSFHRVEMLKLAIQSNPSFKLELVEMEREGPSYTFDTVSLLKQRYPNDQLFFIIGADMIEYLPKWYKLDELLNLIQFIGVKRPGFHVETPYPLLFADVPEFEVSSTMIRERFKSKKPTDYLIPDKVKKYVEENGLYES
Description: Continuous assay. A continuous assay to monitor the reaction in the forward direction was based upon the EnzChek pyrophosphate assay from Molecular Probes (Eugene Oreg.) In this assay, inorganic pyrophosphate produced in the forward reaction of yqeJ is cleaved by inorganic pyrophosphatase to phosphate, which is used by the second coupling enzyme, purine nucleoside phosphorylase (PNP), to convert the chromogenic substrate 2-amino-6-mercapto-7-methylpurine ribonucleoside (MESG) to ribose-1-phosphate and 2-amino-6-mercapto-7methylpurine (E360=11,000 M^−1cm^−1). The reaction conditions were 20 mM Hepes pH 7.5, 10 mM MgCl2, 0.2 mM MESG, 1 U PNP, 0.01 U inorganic pyrophosphatase, and 0.03 μg/mL yqeJ. The reaction volume was 125 μL and was carried out in a 96 well plate at room temperature using spectamax384 plus plate reader recording continuously at 360 nm (Molecular Devices, Sunnyvale Calif.). For the KM determinations, NaMN was varied from 25 to 500 μM with ATP held at 2 mM and ATP was varied from 50 to 1000 μM with NaMN held constant at 1 mM. All kinetic constants were determined from non-linear fits of the experimental data using the enzyme kinetic module of Sigmaplot 7.0 (SPSS, Inc. San Rafael Calif.). The reaction conditions were the same for the KM determinations for NMN except the MgCl2 concentration was increased to 50 mM and the yqeJ concentration was increased to 75 μg/mL due to the lower activity against this substrate. […] The data was fit to a model of substrate inhibition using the equation: v=Vmax/(1+KM/S+S/Ki). […] NMN was varied from 0.5 to 10 mM with ATP held constant at 0.6 mM. The kinetic constants of yqeJ using NMN and ATP substrates also was determined with a second coupled assay system, one coupling NAD production to its reduction by alcohol dehyrogenase. This assay was described by Balducci et al (Balducci et al, 1995a) and has been used to characterize other NMN ATase. Using this assay, very similar values of KM and Vmax for NMN were obtained as was determined with the PNP coupled assay described above. The alcohol dehyrogenase coupled assay was not suitable to assays NaMN as a substrate, presumably because NaAD is not a good substrate for alcohol dehydrogenase.

yqeJ NaMN AT = biological target: T2, yqeJ NaMN AT (Bacillus subtilis, UniProt P54455); test: Discontinuous HPLC adenylyl transferase assay; assay type: biochemical; details: 30 minutes, 37° C.
T2 construct: made in house; host or cells: E. coli BL21(DE3), vector pML208 (modified pET16b)
Experimental: FIGS. 3A, 3B, 3C and 3D provides the results of HPLC analysis of yqeJ NaMN AT adenylyl transferase activity. 0.36 mg/ml yqeJ NaMN AT was incubated with 1 mM ATP and 1 mM NaMN (3A) or 1 mM NMN (3B) for 30 minutes.
Discontinuous HPLC assay. The discontinuous HPLC assay is based upon the assays published by Mehl et al. (12) and Balducci et al. (18). Reaction conditions were 20 mM Hepes, pH 7.4, 10 mM MgCl2, and 0.36 or 0.18 mg/ml yqeJ protein incubated at 37° C. For the forward reaction, the incubations contained 1 mM ATP and 1 mM NaMN or NMN. […] The reactants and products were separated by chromatography on a 3.9×150 mm C18 column (Novapack 5 μm, Waters Inc). Buffer A 100 mM potassium phosphate pH 7.5. Buffer B 100 mM potassium phosphate pH 7.5 in 20% MeOH. The elution conditions were: 0 to 3 min in 100% A, 3.0 to 3.1 min to 100% B, 3.1 to 7 min 100% B. The absorbance of reactants and products was detected at 254 nm.

[2] = biological target: T1, B. subtilis NaMN AT (yqeJ); test: Back reaction coupled enzyme assay (hexokinase / glucose-6-phosphate dehydrogenase)
Description: The back reaction for yqeJ NaMN AT was monitored using the coupled enzyme assay of hexokinase and glucose-6-phosphate dehydrogenase (from yeast). […] The ATP is then used by hexokinase to phosphorylate glucose to give glucose-6-phosphate and ADP. Glucose-6-phosphate is oxidized to 6-phospho-glucono-δ-lactone by glucose-6-phosphate dehydrogenase and NADP is reduced to NADPH. The assay is followed by the absorbance of NADPH at 340 nm. Glucose-6-phosphate dehydrogenase from baker's yeast was used because this enzyme prefers NADP to NAD as a co-substrate. Assay conditions were: 20 mM HEPES pH 7.5, 50 mM MgCl2, 1 mM NaPPi, 10 mM KCl, 5 U hexokinase, 5 U glucose-6-phosphate dehydrogenase, 1 mM glucose, 0.5 mM NADP+.

[3] = substrate: NC(=O)c1ccc[n+]([C@@H]2O[C@H](COP(=O)([O-])O)[C@@H](O)[C@H]2O)c1; test: Continuous coupled assay of the forward reaction (EnzChek pyrophosphate / purine nucleoside phosphorylase); assay type: biochemical, Bacillus subtilis; details: other: forward reaction; mononucleotide substrate varied, ATP held constant (2 mM for NaMN, 0.6 mM for NMN); NMN fit to substrate inhibition equation; pH 7.5
Description: Continuous assay. A continuous assay to monitor the reaction in the forward direction was based upon the EnzChek pyrophosphate assay from Molecular Probes (Eugene Oreg.) In this assay, inorganic pyrophosphate produced in the forward reaction of yqeJ is cleaved by inorganic pyrophosphatase to phosphate, which is used by the second coupling enzyme, purine nucleoside phosphorylase (PNP), to convert the chromogenic substrate 2-amino-6-mercapto-7-methylpurine ribonucleoside (MESG) to ribose-1-phosphate and 2-amino-6-mercapto-7methylpurine (E360=11,000 M^−1cm^−1). The reaction conditions were 20 mM Hepes pH 7.5, 10 mM MgCl2, 0.2 mM MESG, 1 U PNP, 0.01 U inorganic pyrophosphatase, and 0.03 μg/mL yqeJ. The reaction volume was 125 μL and was carried out in a 96 well plate at room temperature using spectamax384 plus plate reader recording continuously at 360 nm (Molecular Devices, Sunnyvale Calif.). […] All kinetic constants were determined from non-linear fits of the experimental data using the enzyme kinetic module of Sigmaplot 7.0 (SPSS, Inc. San Rafael Calif.). […] The kinetic constants of yqeJ using NMN and ATP substrates also was determined with a second coupled assay system, one coupling NAD production to its reduction by alcohol dehyrogenase. […] Using this assay, very similar values of KM and Vmax for NMN were obtained as was determined with the PNP coupled assay described above. […]

[4] = substrate: O=P(O)(O)OP(=O)(O)O; test: purified protein, by the assay type; details: other: back reaction; at saturating concentrations of NaAD (500 μM); pH 7.5
[5] = substrate: NC(=O)c1ccc[n+]([C@@H]2O[C@H](COP(=O)([O-])OP(=O)(O)OC[C@H]3O[C@@H](n4cnc5c(N)ncnc54)[C@H](O)[C@@H]3O)[C@@H](O)[C@H]2O)c1; test: purified protein, by the assay type; details: other: back reaction; at subsaturating concentrations of PPi (1 mM); pH 7.5
Description: The back reaction for yqeJ NaMN AT was monitored using the coupled enzyme assay of hexokinase and glucose-6-phosphate dehydrogenase (from yeast). […] The ATP is then used by hexokinase to phosphorylate glucose to give glucose-6-phosphate and ADP. Glucose-6-phosphate is oxidized to 6-phospho-glucono-δ-lactone by glucose-6-phosphate dehydrogenase and NADP is reduced to NADPH. The assay is followed by the absorbance of NADPH at 340 nm. Glucose-6-phosphate dehydrogenase from baker's yeast was used because this enzyme prefers NADP to NAD as a co-substrate. Assay conditions were: 20 mM HEPES pH 7.5, 50 mM MgCl2, 1 mM NaPPi, 10 mM KCl, 5 U hexokinase, 5 U glucose-6-phosphate dehydrogenase, 1 mM glucose, 0.5 mM NADP+. […] At high concentration of NaPPi a precipitate was observed.

[6] = forward reaction, at saturating concentrations of NaMN
[7] = back reaction, at subsaturating concentrations of PPi (1 mM)
[8] = forward reaction: 1 mM ATP and 1 mM substrate, 0.36 mg/ml yqeJ

Nc1ncnc2c1ncn2[C@@H]1O[C@H](COP(=O)(O)OP(=O)(O)OP(=O)(O)O)[C@@H](O)[C@H]1O [ATP]
Km [1, 6]: 135 µM | Vmax [1, 6]: 10.1 ± 0.4 µmol/min/mg

Nc1ncnc2c1ncn2[C@@H]1O[C@H](COP(=O)(O)OP(=O)(O)OC[C@H]2O[C@@H]([n+]3cccc(C(=O)O)c3)[C@H](O)[C@@H]2O)[C@@H](O)[C@H]1O [NAAD, nicotinic acid adenine dinucleotide]
conversion of substrate by yqeJ, detected by HPLC (yqeJ NaMN AT; reverse reaction: 1 mM sodium pyrophosphate and 0.5 mM substrate, 0.18 mg/ml yqeJ): converted to NaMN and ATP | Km [2, 7]: 6.8 µM | Vmax [2, 7]: 2.8 ± 0.2 µmol/min/mg | preference (Vmax/KM ratio) for nicotinic acid over nicotinamide containing substrate ([2]; reverse reaction, NaAD over NAD): 2,000 to 1

NC(=O)c1ccc[n+]([C@@H]2O[C@H](COP(=O)([O-])O)[C@@H](O)[C@H]2O)c1 [NMN, Nicotinamide Mononucleotide]
Ki [1]: 17 mM | conversion of substrate by yqeJ, detected by HPLC (yqeJ NaMN AT; [8]): a new peak that eluted with NAD

O=C(O)c1ccc[n+]([C@@H]2O[C@H](COP(=O)(O)O)[C@@H](O)[C@H]2O)c1 [NaMN, nicotinic acid mononucleotide]
preference (Vmax/KM ratio) for nicotinic acid over nicotinamide containing substrate ([1]; forward reaction, NaMN over NMN): 12,900 to 1 | Vmax ([1]; forward reaction, mononucleotide substrate varied, ATP held constant): 11.1 ± 0.7 µmol/min/mg | Km ([1]; forward reaction, mononucleotide substrate varied, ATP held constant (2 mM for NaMN, 0.6 mM for NMN), NMN fit to substrate inhibition equation): 43 µM | conversion of substrate by yqeJ, detected by HPLC (yqeJ NaMN AT; [8]): formation of a new peak as detected by HPLC that eluted with the NaAD standard

B1: B. subtilis NaMN AT (yqeJ) (Bacillus subtilis subsp. subtilis str. 168) (protein)
chain: T1 sequence (P54455 with tags, fused parts or gaps)
notes: made in house; host or cells: E. coli BL21(DE3), vector pML208 (modified pET16b)
Km [3]: 2300 ± 200 µM | Vmax [3]: 0.054 µmol/min/mg | Km [4]: 4200 ± 600 µM | Km [5]: 1700 ± 200 µM | Vmax [5]: 0.34 µmol/min/mg
